# From patent US8138191B2, “Inhibitor compounds and cancer treatment methods” (Critical Outcome Technologies Inc., priority 2007, dated 2012)
# pIC50: −log10 of the molar value. Read-outs that look alike come from different tables or passages of the source.
# Columns and labels:
# SHP77 = test: Resistance testing over 5 generations, SHP77; assay type: cell-based, human; conditions: SHP77, 5 generations
# Method: (§1) In order to evaluate the induction of resistance in vitro, compounds according to the invention were tested in head to head comparisons against conventional therapeutic agents Cisplatin® and Taxotere®. The compound designated COTI-4 (which is the subject of Applicant's co-pending U.S. provisional patent application entitled “Composition and Method for Treatment” filed Dec. 26, 2007) was also tested. The structure for COTI-4 is:
# (§2) IC50 values were obtained using methods known to persons skilled in the art with two different human SCLC cell lines (DMS153 and SHP77) obtained from the National Cancer Institute. […] The procedure was repeated for a total of 5 generations. Emerging resistance was identified by increasing IC50 values in successive generations.
# DMS153 = test: Resistance testing over 5 generations, DMS153; assay type: cell-based, human; conditions: DMS153, 5 generations
# Method: as §1, §2
# U87 = test: IC50 human glioma/astrocytoma cell lines (alamar Blue), U87
# Method: (§9) Cell lines were obtained from the Human Tissue Culture Collection (ATCC), grown and maintained under ATCC-specified conditions, and tested to ensure viability and lack of contaminating mycoplasma and common viruses. […] A viability stain (alamar Blue) was added to cells after 4-7 days of drug exposure (approximately 4 doublings of control cells; maximum cell density in wells approximately 80%), and assayed for total cellular metabolic activity (a function of population density of live cells) by absorbance.
# [1] = system: SHP-77 human SCLC cell line tumor xenografts; test: Nude mouse model of human SCLC, SHP-77 xenografts; assay type: in vivo; conditions: for average number of tumors per injection site / mean tumor volume: IP on alternate days from Day 3, 31 days
# Method: The nude mouse model of human SCLC was used to evaluate the in vivo efficacy of compounds of the present invention in comparison with several known chemotherapeutic agents. Nude mice were obtained form the National Cancer Institute and the SHP-77 human SCLC cell line was chosen for metastatic tumor xenografts. The control group consisted of 10 animals, each of which were administered bilateral thigh injections of a prescribed volume of tumor cells. There were 6 treatment groups, each containing 5 animals: COTI-2, COTI-4, COTI-219, Taxotere® (docetaxel), Cisplatin® (cis-diamminedichloroplatinum) and Tarceva® (erlotinib) The therapeutic agent was administered by intraperitoneal (IP) injection on alternate days beginning on Day 3 post tumor cell injection. Each animal in a treatment group was administered bilateral thigh injections with the same prescribed volume of tumor cells as the control animals. Treatment continued for 31 days, following which the animals were euthanized and tissues were collected for subsequent analysis.
# SNB-19 = test: IC50 human glioma/astrocytoma cell lines (alamar Blue), SNB-19
# Method: as §9
# Standard lab mice = test: Escalating dose acute toxicity study in mice; conditions: 4, 8, 16 mg/kg alternate day IP, 28 days
# Source text: Mice were given alternate day IP injections for 28 days. […] Blood and tissue samples were harvested for histopathology.
# DMS114 cells = test: Proliferation with anti-cancer agents plus COTI-2, DMS114; assay type: cell-based, human; conditions: DMS114
# SHP 77 cells = test: Proliferation with anti-cancer agents plus COTI-2, SHP 77; assay type: cell-based, human; conditions: SHP 77
# U87 glioblastoma cells = test: Proliferation of U87 glioblastoma cells (alamarBlue), single agents and combinations with temsirolimus or rapamycin; assay type: cell-based; conditions: Homo sapiens; U87, single agent, triplicate experiments
# Method: In vitro IC50 values were obtained for combinations of compounds of the present invention with temsirolimus or rapamycin in the treatment of U87 glioblastoma cells. Temsirolimus and rapamycin both inhibit proliferation of human U87 glioblastoma cells, as single agents (FIG. 14). […] Both inhibit proliferation of these cells with increasing concentration.
# Temsirolimus was provided in liquid form from the London Regional Cancer Program (LRCP) Pharmacy. COTI-219 was prepared as a 50 mM stock in DMSO, then diluted to 10 mM in DMSO followed by serial dilution water for addition to medium overlaying cells. Cells were incubated with temsirolimus in combination with COTI-219 for 4 days (in wells of 96 well plates) followed by analysis of live cell density using the fluorescent vital stain alamarBlue.
# All data points are means±SEM (n=6). Error bars are, in every case, smaller than the size of the symbol.
# Rapamycin was prepared by crushing and extracting a tablet (supplied from the LRCP Pharmacy) with DMSO, followed by centrifugation to remove particulate matter. COTI-219 was prepared as a 50 mM stock in DMSO, then diluted to 10 mM in DMSO followed by serial dilution water for addition to medium overlaying cells. […]
# [2] = system: PI3K activity in SHP77 cells; test: PI3-K activity (PIP3 detection, Echelon kit), SHP77; assay type: cell-based, human; conditions: SHP77, 50 μM inhibitor + 250 nM COTI-2
# Source text: As a negative control, an equivalent volume of DMSO was utilized. […] To measure PI3-K activity, a commercial kit was purchased from Echelon. Following the procedures recommended by the manufacturer, membrane lipids were extracted in several steps and the resulting PIP3 was immobilized to nitrocellulose and measured by its interaction with a PH-domain containing protein and HRP-conjugated antibody supplied with the kit. As an additional control in these experiments, the specific PI3-K inhibitor, LY294002 was used to inhibit PI3-K and thus stop PIP3 production.
# [3] = system: NCI/DTP 60 cell line panel; conditions: NOT including DMS114 and SHP-77; cited from earlier work
# H1975 = test: CellTiter-Blue growth inhibition, single agents and combinations, H1975; assay type: cell-based; conditions: Homo sapiens, NCI-H1975; H1975, NSCLC, EGFR - MUT, 72 h; read-out: Mean IC50, single agent
# Method: (§3) The stock concentration was further diluted to 1 mM and added to a drug plate. […] Following dilution, 2 μl of test agent was transferred to the corresponding wells of a cell-containing 96-well plate with 198 μl of growth media. Tarceva® (erlotinib) was supplied by LC Labs (Woburn, Mass.).
# (§4) Viable cell numbers were quantified by the CellTiter-Blue® cell viability assay, which measures the conversion of the indicator dye (resazurin) to resorufin, an indicator of cell viability. Experiments were repeated at least twice with the same concentrations to determine growth inhibitory activity.
# (§5) The CI, a numerical value calculated as described in equation A, also provides a quantitative measure of the extent of drug interaction. A CI of less than, equal to, and more than 1 indicates synergy, additivity, and antagonism, respectively. CI=(CAx/ICx,A)+(CB,x/ICx,B) Equation A: Where CA,x and CB,x, are the concentrations of drug A and drug B used in combination to achieve x % drug effect. ICx,A and ICx,B are the concentrations for single agents to achieve the same effect.
# HCT-15 = test: Tumor cell proliferation, single agents and combinations, HCT-15; assay type: cell-based; conditions: Homo sapiens; HCT-15, Colon, KRAS - MUT; read-out: Mean IC50, single agent
# Method: (§6) The 3 cell lines were treated as follows:
# (§7) Day 1: Cells were plated in 96-well flat bottom plates (VWR, Mississauga, ON, Canada) and allowed to adhere overnight.
# (§8) All treated and control cells were, therefore, exposed to a 1% DMSO concentration plus the desired concentration of COTI-2.
# as §5
# H292 = test: CellTiter-Blue growth inhibition, single agents and combinations, H292; assay type: cell-based; conditions: Homo sapiens, NCI-H292; H292, NSCLC, EGFR - WT, 72 h; read-out: Mean IC50, single agent
# Method: as §3, §4, §5
# SW620 = test: Tumor cell proliferation, single agents and combinations, SW620; assay type: cell-based, human; conditions: for pIC50: Homo sapiens
# Method: as §6, §7, §8, §5
# COLO-205 = test: Tumor cell proliferation, single agents and combinations, COLO-205; assay type: cell-based, human; conditions: for pIC50: Homo sapiens
# Method: as §6, §7, §8, §5
compound,measurement,setting,value
"N.N.[Cl][Pt][Cl] [Cisplatin, cis-diamminedichloroplatinum, reference compound]",emerging resistance: ratio of IC50 to IC50 of parental generation,SHP77,significant increases in IC50
same,emerging resistance: ratio of IC50 to IC50 of parental generation,DMS153,significant increases in IC50
same,pIC50,"U87; U87, 4-7 days",6.31
same,average number of tumors per injection site,[1],0.48
same,mean tumor volume,[1],132+/−26 mm^3
same,pIC50,"SNB-19; SNB-19, 4-7 days",6.06
CN1CCN(C(=S)NN=C(c2ccccn2)c2ccccn2)CC1 [COTI-4],acute toxicity / adverse effects,Standard lab mice,No evidence of acute toxicity
same,weight loss,Standard lab mice,None of the drugs produced any weight loss
"Nc1ccn([C@@H]2O[C@H](CO)[C@@H](O)C2(F)F)c(=O)n1 [Gemcitabine, reference compound]",effect of combination with COTI-2 on proliferation,DMS114 cells,additive effect
same,effect of combination with COTI-2 on proliferation,SHP 77 cells,additive effect
"CCC1=C[C@@H]2CN(C1)Cc1c([nH]c3ccccc13)[C@@](C(=O)OC)(c1cc3c(cc1OC)N(C)[C@H]1[C@@](O)(C(=O)OC)[C@H](OC(C)=O)[C@]4(CC)C=CCN5CC[C@]31[C@@H]54)C2 [Vinorelbine, reference compound]",effect of combination with COTI-2 on proliferation,DMS114 cells,additive effect
same,effect of combination with COTI-2 on proliferation,SHP 77 cells,additive effect
"CO[C@H]1C[C@@H]2CC[C@@H](C)[C@@](O)(O2)C(=O)C(=O)N2CCCC[C@H]2C(=O)O[C@H]([C@H](C)C[C@@H]2CC[C@@H](O)[C@H](OC)C2)CC(=O)[C@H](C)/C=C(\C)[C@@H](O)[C@@H](OC)C(=O)[C@H](C)C[C@H](C)/C=C/C=C/C=C/1C [Rapamycin, rapamycin]",pIC50,U87 glioblastoma cells,5.00
"O=c1cc(N2CCOCC2)oc2c(-c3ccccc3)cccc12 [LY294002, reference compound]",PIP3 detected in the presence of the PI3K-inhibitor,[2],approximately 14 pmol
Oc1[nH]c2ccccc2c1N=NC(=S)N1CCCCCC1 [NSC668496],Mean Over NCI/DTP 60 cell line panel (LogGI50),[3],−6.1
"C#Cc1cccc(Nc2ncnc3cc(OCCOC)c(OCCOC)cc23)c1 [Tarceva®, erlotinib]",pIC50,H1975,< 4.00
same,pIC50,HCT-15,5.29
same,pIC50,H292,7.70
same,pIC50,"SW620; SW-620, 96 h, read-out: concentration to reduce growth by 50% (IC50), SW620, 4 day assessment",< 5.00
same,pIC50,"SW620; SW-620, SW620, Colon, KRAS - MUT, read-out: Mean IC50, single agent",< 5.00
same,highest concentration that did not significantly affect growth,SW620; SW620,5 µM
same,survival of treated animals to study conclusion,[1]; 31 days,died before study conclusion
same,highest concentration that did not significantly affect growth,COLO-205; COLO 205,10 µM
same,pIC50,"COLO-205; 96 h, read-out: concentration to reduce growth by 50% (IC50), COLO-205, 4 day assessment",< 5.00
same,pIC50,"COLO-205; COLO-205, Colon, KRAS - WT, read-out: Mean IC50, single agent",< 5.00
COc1ccc(NC(=S)N=Nc2c(O)[nH]c3c(Cl)cc(Cl)cc23)cc1 [NSC73306],Mean Over NCI/DTP 60 cell line panel (LogGI50),[3],−4.9
"O=NN(CCCl)C(=O)NCCCl [BCNU, 1,3-Bis(2-chloroethyl)-1-nitrosourea, reference compound]",pIC50,"U87; Homo sapiens, U-87 MG",5.82
same,pIC50,"SNB-19; Homo sapiens, SNB-19",5.65
"CC(=O)O[C@@]12CO[C@@H]1C[C@H](O)[C@@]1(C)C(=O)[C@H](O)C3=C(C)[C@@H](OC(=O)[C@H](O)[C@@H](NC(=O)OC(C)(C)C)c4ccccc4)C[C@@](O)([C@@H](OC(=O)c4ccccc4)[C@H]21)C3(C)C [Taxotere®, docetaxel, reference compound]",emerging resistance: ratio of IC50 to IC50 of parental generation,SHP77,significant increases in IC50
same,emerging resistance: ratio of IC50 to IC50 of parental generation,DMS153,significant increases in IC50
same,average number of tumors per injection site,[1],0.48
same,mean tumor volume,[1],183 mm^3
"CO[C@H]1C[C@@H]2CC[C@@H](C)[C@@](O)(O2)C(=O)C(=O)N2CCCC[C@H]2C(=O)O[C@H]([C@H](C)C[C@@H]2CC[C@@H](OC(=O)C(C)(CO)CO)[C@H](OC)C2)CC(=O)[C@H](C)/C=C(\C)[C@@H](O)[C@@H](OC)C(=O)[C@H](C)C[C@H](C)/C=C/C=C/C=C/1C [Temsirolimus, temsirolimus]",pIC50,U87 glioblastoma cells,5.44
C=CCNC(=S)N=Nc1c(O)n(CN2CCOCC2)c2ccc([N+](=O)[O-])cc12 [NSC716768],Mean Over NCI/DTP 60 cell line panel (LogGI50),[3],−4.7
